Test results: ChEMBL document CHEMBL5528066, “Discovery of Novel N-(Anthracen-9-ylmethyl) Benzamide Derivatives as ZNF207 Inhibitors Promising in Treating Glioma” (J Med Chem, 2024)
Activity calls are given as the source filed them. The rule behind the calls is not given here.

Columns and labels:
[1] = Toxicity in female C57BL/6 mouse assessed as change in cellular structure of thymus at 45 mg/kg, po administered once a day for 2 weeks by H and E staining based analysis; assay type: organism-based; details: in vivo, 336 h
LN-229 [2] = assay: Antitumor activity against human LN-229 cells xenografted in BALB/c nude mouse assessed as reduction in proportion of p-H3 positive cells at 150 mg/kg, ip administered twice a week and measured after 49 days by immunohistochemistry analysis; assay type: functional, organism-based; details: time 49.0 day
H4 [3] = assay: Inhibition of sphere formation in human H4 cells at 1 uM measured after 10 days in well containing 10000 cells by microscopic analysis; assay type: functional, cell-based; details: time 10.0 day
[4] = Drug concentration in male Sprague-Dawley rat intestine at 45 mg/kg, po measured after 8 hrs by LC-MS/MS analysis; assay type: ADME, organism-based; details: read-out: Ct
LN-229 [5] = assay: Inhibition of sphere formation in human LN-229 cells at 8 uM measured after 10 days in well containing 10000 cells by microscopic analysis; assay type: functional, cell-based; details: time 10.0 day
LN-229-Luc = assay: Antitumor activity against human Ln-229-Luc cells xenografted in BALB/c nude mouse assessed as increase in overall survival time at 45 mg/kg, po administered once a day and measured after 3 to 31 days; assay type: functional, organism-based; details: time 3-31 day
H4 [6] = assay: Inhibition of sphere formation in human H4 cells assessed as fold reduction in sphere initiating frequency at 2 uM incubated for 10 days by microscopic analysis relative to control; assay type: functional; details: time 10 day
U-251 [7] = assay: Inhibition of sphere formation in human U-251MG cells at 8 uM measured after 10 days in well containing 10 cells by microscopic analysis; assay type: functional, cell-based; details: time 10.0 day
[8] = Drug concentration in female Sprague-Dawley rat stomach at 45 mg/kg, po measured after 8 hrs by LC-MS/MS analysis; assay type: ADME, organism-based; details: read-out: Ct
[9] = Drug concentration in female Sprague-Dawley rat intestine at 45 mg/kg, po measured after 8 hrs by LC-MS/MS analysis; assay type: ADME, organism-based; details: read-out: Ct
MDR1 = assay: Apparent permeability across basolateral to apical side in MDCKII-MDR1 cells at 1 uM incubated for 2 hrs by LC-MS/MS analysis; assay type: ADME, cell-based, Canis lupus familiaris; details: dog, MDCK-MDR1
U-937 = assay: Antiproliferative activity against human U-937 cells assessed as inhibition of cell growth incubated for 72 hrs by CCK-8 assay; assay type: functional, cell-based; details: U-937, 72 h
LN-229 [10] = assay: Inhibition of cell migration in human LN-229 cells assessed as reduction in wound closure ability at 5 uM measured after 48 hrs by wound healing assay relative to control; assay type: functional
U-251 [11] = assay: Induction of apoptosis in human U-251MG cells assessed as apoptotic cells at 2.5 uM incubated for 24 hrs by Annexin V-FITC/PI staining based flow cytometry analysis relative to control; assay type: functional
LN-229 [12] = assay: Antitumor activity against human LN-229 cells xenografted in BALB/c nude mouse assessed as reduction in proportion of p-H3 positive cells at 15 to 45 mg/kg, po administered once a day and measured after 49 days by immunohistochemistry analysis; assay type: functional, organism-based; details: dose 15-45 mg/kg, time 49.0 day
[13] = Drug concentration in male Sprague-Dawley rat lung at 45 mg/kg, po measured after 8 hrs by LC-MS/MS analysis; assay type: ADME, organism-based; details: read-out: Ct
H4 [14] = assay: Inhibition of sphere formation in human H4 cells at 2 uM measured after 10 days in well containing 10 cells by microscopic analysis; assay type: functional, cell-based; details: time 10.0 day
[15] = biological target: T1, BUB3-interacting and GLEBS motif-containing protein ZNF207 (Homo sapiens, UniProt O43670); assay: Binding affinity to human ZNF207 assessed as dissociation constant by SPR analysis
T1 sequence (O43670 whole entry): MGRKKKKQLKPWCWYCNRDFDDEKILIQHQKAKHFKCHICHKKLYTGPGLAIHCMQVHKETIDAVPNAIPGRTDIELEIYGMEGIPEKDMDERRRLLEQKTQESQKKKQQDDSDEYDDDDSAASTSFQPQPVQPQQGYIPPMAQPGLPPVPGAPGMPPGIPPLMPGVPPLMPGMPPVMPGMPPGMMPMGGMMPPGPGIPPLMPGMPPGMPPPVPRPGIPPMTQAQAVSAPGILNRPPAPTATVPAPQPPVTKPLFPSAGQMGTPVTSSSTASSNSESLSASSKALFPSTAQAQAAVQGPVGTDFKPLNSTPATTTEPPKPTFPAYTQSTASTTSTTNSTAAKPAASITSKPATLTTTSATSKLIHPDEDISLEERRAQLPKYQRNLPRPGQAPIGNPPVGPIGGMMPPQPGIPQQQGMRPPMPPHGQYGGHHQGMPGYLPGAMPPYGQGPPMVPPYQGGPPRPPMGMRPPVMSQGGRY

H4 [16] = assay: Antiproliferative activity against human H4 cells assessed as inhibition of cell growth measured after 72 hrs by CCK-8 assay; assay type: functional, cell-based; details: H4, 72 h
[17] = Toxicity in female C57BL/6 mouse assessed as change in cellular structure of stomach at 45 mg/kg, po administered once a day for 2 weeks by H and E staining based analysis; assay type: organism-based; details: in vivo, 336 h
LN-229 [18] = assay: Inhibition of sphere formation in human LN-229 cells at 8 uM measured after 10 days in well containing 1 cells by microscopic analysis; assay type: functional, cell-based; details: time 10.0 day
H4 [19] = assay: Inhibition of sphere formation in human H4 cells at 4 uM measured after 10 days in well containing 10000 cells by microscopic analysis; assay type: functional, cell-based; details: time 10.0 day
[20] = biological target: T1, BUB3-interacting and GLEBS motif-containing protein ZNF207; assay: Binding affinity to ZNF207 in human H4 cells assessed as thermal stabilization by measuring increase in melting temperature at 30 uM incubated for 3 hrs by CETSA; assay type: cell-based
[21] = Drug concentration in male Sprague-Dawley rat kidney at 45 mg/kg, po measured after 8 hrs by LC-MS/MS analysis; assay type: ADME, organism-based; details: read-out: Ct
U-251 [22] = assay: Inhibition of sphere formation in human U-251MG cells at 1 uM measured after 10 days in well containing 1000 cells by microscopic analysis; assay type: functional, cell-based; details: time 10.0 day
U-251 [23] = assay: Inhibition of sphere formation in human U-251MG cells assessed as fold reduction in sphere initiating frequency at 2 uM incubated for 10 days by microscopic analysis relative to control; assay type: functional; details: time 10 day
U-251 [24] = assay: Inhibition of sphere formation in human U-251MG cells at 8 uM measured after 10 days in well containing 1 cells by microscopic analysis; assay type: functional, cell-based; details: time 10.0 day
Hs 683 [25] = assay: Inhibition of sphere formation in human Hs 683 cells at 2 uM measured after 10 days in well containing 10000 cells by microscopic analysis; assay type: functional, cell-based; details: time 10.0 day
HeLa = assay: Antiproliferative activity against human HeLa cells assessed as inhibition of cell growth incubated for 72 hrs by CCK-8 assay; assay type: functional, cell-based
LN-229 [26] = assay: Inhibition of sphere formation in human LN-229 cells at 2 uM measured after 10 days in well containing 1 cells by microscopic analysis; assay type: functional, cell-based; details: time 10.0 day
U-251 [27] = assay: Inhibition of sphere formation in human U-251MG cells assessed as fold reduction in sphere initiating frequency at 4 uM incubated for 10 days by microscopic analysis relative to control; assay type: functional; details: time 10 day
[28] = Toxicity in female C57BL/6 mouse assessed as change in cellular structure of lung at 45 mg/kg, po administered once a day for 2 weeks by H and E staining based analysis; assay type: organism-based; details: in vivo, 336 h
Hs 683 [29] = assay: Induction of apoptosis in human Hs 683 cells at 1.25 uM incubated for 24 hrs by Annexin V-FITC/PI staining based flow cytometry analysis; assay type: functional, cell-based
LN-229 [30] = assay: Antitumor activity against human LN-229 cells xenografted in BALB/c nude mouse assessed as tumor growth delay by measuring tumor volume at 45 mg/kg, po administered once a day and measured every 2 days for 49 days (reference value: 700 […]); assay type: functional; details: time 49 day
LN-229 [31] = assay: Inhibition of sphere formation in human LN-229 cells at 4 uM measured after 10 days in well containing 1 cells by microscopic analysis; assay type: functional, cell-based; details: time 10.0 day
U-251 [32] = assay: Inhibition of sphere formation in human U-251MG cells at 4 uM measured after 10 days in well containing 10 cells by microscopic analysis; assay type: functional, cell-based; details: time 10.0 day
U-251 [33] = assay: Inhibition of sphere formation in human U-251MG cells incubated for 168 hrs by microscopic analysis; assay type: functional, cell-based; details: U-251, 168 h
H4 [34] = assay: Inhibition of sphere formation in human H4 cells at 4 uM measured after 10 days in well containing 100 cells by microscopic analysis; assay type: functional, cell-based; details: time 10.0 day

N#CC1(C(=O)NCCC2CCN(Cc3ccccc3)CC2)CC2(Br)c3ccccc3C1c1ccccc12 (racemic)
Activity [1]: Non-Toxic
Activity (LN-229 [2]): Active
inhibition (H4 [3]): inactive
concentration at 8 h [4]: 688 ng/g
inhibition (LN-229 [5]): inactive
Activity (LN-229-Luc): Active
fold change (FC) (H4 [6]): 25.31
inhibition (U-251 [7]): Active
concentration at 8 h [8]: 4370 ng/g
concentration at 8 h [9]: 442 ng/g
Papp B→A at 2 h, 1 µM (MDR1): 4.09 ×10⁻⁶ cm/s
IC50 (U-937): 14 µM
inhibition at 5 µM (LN-229 [10]): 28.4%
Activity (U-251 [11]): ~20%
Activity (LN-229 [12]): Active
concentration at 8 h [13]: 2050 ng/g
inhibition (H4 [14]): Active
Kd [15]: 67 nM
IC50 (H4 [16]): 720 nM
Activity [17]: Non-Toxic
inhibition (LN-229 [18]): Active
inhibition (H4 [19]): inactive
ΔTm [20]: 1.9 °C
concentration at 8 h [21]: 85.1 ng/g
inhibition (U-251 [22]): inactive
fold change (FC) (U-251 [23]): 35.63
inhibition (U-251 [24]): Active
inhibition (Hs 683 [25]): inactive
IC50 (HeLa): 8.13 µM
inhibition (LN-229 [26]): Active
fold change (FC) (U-251 [27]): 78.18
Activity [28]: Non-Toxic
Activity (Hs 683 [29]): Active
Activity (LN-229 [30]): 200 mm3
inhibition (LN-229 [31]): Active
inhibition (U-251 [32]): Active
IC50 (U-251 [33]): 870 nM
inhibition (H4 [34]): Active
